Results from patent US9416099B2 (priority 2010, dated 2016).
Where “and” joins values, the source holds several entries; their conditions need not be identical. Equal entries are not always repeated.

Key:
Pseudomonas aeruginosa = type: cell-based
Staphylococcus aureas = type: cell-based
[1] = test system: Pseudomonas aeruginosa and Staphylococcus aureas; type: cell-based
[2] = type: physicochemical

| Compound | Adjuvant 1 h, mL separation [mL] | Anionic 1 h, mL separation [mL] | Nonionic 1 h, mL separation [mL] | Adjuvant 24 h, mL separation [mL] | Anionic 24 h, mL separation [mL] | % Kill, Pseudomonas aeruginosa, 400 ppm (Pseudomonas aeruginosa) [%] | % Kill, Pseudomonas aeruginosa, DI water (Pseudomonas aeruginosa) [%] | % Kill, Staphylococcus aureas, 400 ppm (Staphylococcus aureas) [%] | % Kill, Staphylococcus aureas, DI water (Staphylococcus aureas) [%] | Overall Rating [1] | Nonionic 24 h, mL separation [mL] | % Separation 1 h [2] [%] | % Separation 24 h [2] |
| --- | --- | --- | --- | --- | --- | --- | --- | --- | --- | --- | --- | --- | --- |
| C[N+](C)(CCCNC(=O)CCCCCCCC=CCCCCCCCC(=O)NCCC[N+](C)(C)CC(=O)[O-])CC(=O)[O-] (mixture of isomers) [Mix-32, C18 DiBetaine] | 0 | 0 | 0 | 0 | 0 |  |  |  |  |  |  |  |  |
| C=CCCCCCCCC(=O)NCCC[N+](C)(C)C [C10-18, C10 DMAPA Quat] |  |  |  |  |  | 28.9 | 29.6 | 71.8 | 75.9 | good |  |  |  |
| C=CCCCCCCCC(=O)NCCC[N+](C)(C)CC(=O)[O-] [C10-22, C10 DMAPA Betaine] | 0 | 0 |  | 0 | 0 |  |  |  |  |  | 0.5 |  |  |
| C=CCCCCCCCC(=O)NCCC[N+](C)(C)CC(O)CS(=O)(=O)[O-] (stereo not drawn) [C10-24, C10 DMAPA Sulfobetaine] | 0 | 0 | 0.5 | 0 | 0 |  |  |  |  |  | 0.5 |  |  |
| C=CCCCCCCCC(=O)NCCC[N+](C)(C)Cc1ccccc1.[Cl-] [C10-31, C10 DMAPA Benzyl Quat] |  |  |  |  |  | 47.4 | 47.5 | 65.5 | 79.7 | superior |  |  |  |
| C=CCCCCCCCC[N+](C)(C)C [C10-42, C10 Amine DMS Quat] | 0 | 0 |  | 0 | 0 |  |  |  |  |  |  |  |  |
| CC/C=C/CCCCCCCC(=O)NCCC[N+](C)(C)C [C12-18] |  |  |  |  |  | 40.5 | 58.7 | 66.3 | 42.4 | good |  |  |  |
| CC/C=C/CCCCCCCC(=O)NCCC[N+](C)(C)CC(=O)[O-] [C12-22, C12 DMAPA Betaine] | 0 | 0 | 0 | 0 | 0 |  |  |  |  |  |  |  |  |
| CCCC(CCCCCCCC(=O)NCCC[N+](C)(C)CC(=O)[O-])S(=O)(=O)[O-].[Na+] (stereo not drawn) [C12-23, C12 DMAPA Betaine Sulfonate] | 0 | 0 |  | 0 | 0 |  |  |  |  |  | 0.25 | 3 | 3.5% and 3% |
| CC/C=C/CCCCCCCC(=O)NCCC[N+](C)(C)CC(O)CS(=O)(=O)[O-] (stereo not drawn) [C12-24, C12 DMAPA Sulfobetaine] | 0 | 0 | 0.25 | 0 | 0 |  |  |  |  |  | 1 |  |  |
| CC/C=C/CCCCCCCC[N+](C)(C)Cc1ccccc1 [C12-27, C12 Amine Benzyl Quat] | 0 | 0 |  | 0 | 0 | 59.5 | 51.2 | 63.5 | 46.0 | good |  |  |  |
| CCCCCC/C=C/CCCCCCCC(=O)NCCC[N+](C)(C)CC(=O)[O-] [C16-13, C16 DMAPA Betaine] |  | 0 |  |  | 0.25 |  |  |  |  |  |  |  |  |
| CCCCCC/C=C/CCCCCCCC[N+](C)(C)Cc1ccccc1 [C16-17, C16 Amine Benzyl Quat] |  |  |  |  |  | 39.4 | 42.6 | 42.5 | 48.1 | superior |  |  |  |
| C[N+](C)(C)CCCNC(=O)CCCCCCC/C=C/CCCCCCCC(=O)NCCC[N+](C)(C)C [C18-27, C18 DiDMAPA DiQuat] |  |  |  |  |  | 19.8 | 38.9 | 17.7 | 55.4 | good |  |  |  |
| C[N+](C)(C)CCCNC(=O)CCCCCCC/C=C/CCCCCCCC(=O)NCCC[N+](C)(C)[O-] [C18-35, C18 DiDMAPA Quat AO] |  |  |  |  |  | 34.4 | 29.3 | 35.7 | 55.1 | good |  |  |  |
| CN(C)CCCNC(=O)CCCCCCC/C=C/CCCCCCCC(=O)NCCC[N+](C)(C)CC(=O)[O-] [C18-36, C18 DiDMAPA MonoBetaine] | 0 | 0 | 0 | 0 | 0 |  |  |  |  |  |  |  |  |
| C[N+](C)([O-])CCCNC(=O)CCCCCCC/C=C/CCCCCCCC(=O)NCCC[N+](C)(C)CC(=O)[O-] [C18-37, C18 DiDMAPA Betaine AO] | 0 | 0 | 0 | 0 | 0 |  |  |  |  |  |  |  |  |
| C[N+](C)(C)CCCNC(=O)CCCCCCC/C=C/CCCCCCCC(=O)NCCC[N+](C)(C)CC(=O)O [C18-38, C18 DiDMAPA Betaine Quat] |  |  |  |  |  | 18.8 | 42.2 | 30.3 | 57.4 | good |  |  |  |
| C[N+](C)(CCCNC(=O)CCCCCCC/C=C/CCCCCCCC(=O)NCCC[N+](C)(C)Cc1ccccc1)Cc1ccccc1.[Cl-].[Cl-] [C18-65, C18 DiDMAPA Benzyl Quat] |  |  |  |  |  | 24.7 | 30.4 | 20.6 | 55.6 | good |  |  |  |
| C[N+](C)(C)CCCNC(=O)CCCCCCC/C=C/CCCCCCCC(=O)NCCC[N+](C)(C)C [Mix-27, C18 DiDMAPA DiQuat] | 0 | 0 | 0 | 0 | 0 | 23.2 | 52.4 | 23.2 | 56.1 | good | 0 |  |  |
| C[N+](C)(CCCNC(=O)CCCCCCC/C=C/CCCCCCCC(=O)NCCC[N+](C)(C)CC(O)CS(=O)(=O)[O-])CC(O)CS(=O)(=O)[O-] (stereo not drawn) [Mix-31, C18 DiSulfobetaine] | 0 | 0 | 0 | 0 | 0 |  |  |  |  |  |  |  |  |
| CN(C)CCCNC(=O)CCCCCCC/C=C/CCCCCCCC(=O)NCCC[N+](C)(C)C [Mix-34, C18 DiDMAPA MonoQuat] |  |  |  |  |  | 24.1 | 47.5 | 28.6 | 57.5 | good |  |  |  |
| C[N+](C)(C)CCCNC(=O)CCCCCCC/C=C/CCCCCCCC(=O)NCCC[N+](C)(C)[O-] [Mix-35, C18 DiDMAPA Quat AO] | 0 | 0 | 5 | 0 | 0 | 22.1 | 31.4 | 20.9 | 55.6 | good | 1 |  |  |
| CN(C)CCCNC(=O)CCCCCCC/C=C/CCCCCCCC(=O)NCCC[N+](C)(C)CC(=O)[O-] [Mix-36, C18 DiDMAPA MonoBetaine] |  | 0 | 0 |  | 0 |  |  |  |  |  | 0 |  |  |
| C[N+](C)([O-])CCCNC(=O)CCCCCCC/C=C/CCCCCCCC(=O)NCCC[N+](C)(C)CC(=O)[O-] [Mix-37, C18 DiDMAPA Betaine AO] |  | 0 | 0 | 0.5 |  |  |  |  |  |  | 0 |  |  |
| C[N+](C)(C)CCCNC(=O)CCCCCCC/C=C/CCCCCCCC(=O)NCCC[N+](C)(C)CC(=O)O [Mix-38, C18 DiDMAPA Betaine Quat] | 0.5 |  | 0 | 0.5 |  |  |  |  |  |  | 0 |  |  |
| COC(=O)CCCCCCC/C=C/CCCCCCCC(=O)NCCC[N+](C)(C)CC(=O)[O-] [Mix-48, C18 Ester DMAPA Betaine] | 0 | 0 | 0 | 0 | 0 |  |  |  |  |  | 0.5 |  |  |
| C[N+](C)(CCCNC(=O)CCCCCCC/C=C/CCCCCCCC(=O)NCCC[N+](C)(C)Cc1ccccc1)Cc1ccccc1.[Cl-].[Cl-] [Mix-65, C18 DiDMAPA Benzyl Quat] |  |  |  |  |  | 26.1 | 30.5 | 22.1 | 55.3 | good |  |  |  |
| calcium alkylbenzenesulfonate [Control 1, reference compound] |  |  |  |  |  |  |  |  |  |  |  | <0.2 | 1.3% |
